From patent US11247965B2 (VenatoRx Pharmaceuticals, Inc., priority 2017, dated 2022)

Legend:
[1] = system: HBV replication in HepAD38 cells; assay: Anti-HBV activity in HepAD38 cells, extracellular HBV DNA by QPCR; format: cell-based, HBV (genotype D, serotype ayw); conditions: Hepatitis B virus, HePAD38, 168 h, read-out: Anti-HBV EC50, HepAD38 cells, extracellular HBV DNA by QPCR, 7 days of incubation
How it was run: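 Seven-day compound exposure (30 μM down to 10 nM, half-log steps) after tetracycline withdrawal induced HBV replication in HepAD38 cells. Extracellular viral DNA measured by QPCR (copies/mL via standard curve), normalised to DMSO wells; EC50 from 4-parameter non-linear regression.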

[2] = In vitro cytotoxicity, MTT cell viability assay in HepG2 cells; format: cell-based; conditions: human, Cytotoxicity CC50
How it was run: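 Parental HepG2 cells in EMEM + 10% FBS were exposed to compounds (8 half-log dilutions, 30 μM to 1.0 nM) for 7 days at 37 °C, 5% CO2. MTT was then added for 3-4 h, formazan dissolved in DMSO and absorbance read at 492 nm; CC50 came from 4-parameter fits against vehicle controls.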

Row | Compound | EC50 [1] [µM] | CC50 at 7 days [2] [µM]
1 | Cc1cc(NC(=O)c2ccn(C)c2C(F)(F)C(=O)NC(C)C(F)(F)F)ccc1F (stereo not shown) [Example 112, 2-(1,1-difluoro-2-oxo-2-((1,1,1-trifluoropropan-2-yl)amino)ethyl)-N-(4-fluoro-3-methylphenyl)-1-methyl-1H-pyrrole-3-carboxamide] | > 30 | > 30
2 | Cc1cc(NC(=O)c2cn(C)c(C(F)(F)C(=O)NC(C)(C)C)c2C)ccc1F [Example 113, 5-(2-(tert-butylamino)-1,1-difluoro-2-oxoethyl)-N-(4-fluoro-3-methylphenyl)-1,4-dimethyl-1H-pyrrole-3-carboxamide] | < 5 | > 30
3 | Cc1cc(NC(=O)c2c(C)cn(C)c2C(F)(F)C(=O)NC(C)(C)C)ccc1F [Example 114, 2-(2-(tert-butylamino)-1,1-difluoro-2-oxoethyl)-N-(4-fluoro-3-methylphenyl)-1,4-dimethyl-1H-pyrrole-3-carboxamide] | > 30 | > 30
4 | C=Cc1ccc(C(=O)Nc2ccc(F)c(C)c2)cc1C(F)(F)C(=O)N1CCC(O)CC1 [Example 115, 3-(1,1-difluoro-2-(4-hydroxypiperidin-1-yl)-2-oxoethyl)-N-(4-fluoro-3-methylphenyl)-4-vinylbenzamide] | < 5 | > 30
5 | Cc1cc(NC(=O)c2ccc([C@@H](O)CO)c(C(F)(F)C(=O)N3CCC(O)CC3)c2)ccc1F [Example 116, (R)-3-(1,1-difluoro-2-(4-hydroxypiperidin-1-yl)-2-oxoethyl)-4-(1,2-dihydroxyethyl)-N-(4-fluoro-3-methylphenyl)benzamide] | > 30 | > 30
6 | Cc1cc(NC(=O)c2ccc([C@@H](O)CO)c(C(F)(F)C(=O)NC(C)(C)C)c2)ccc1F [Example 117, (R)-3-(2-(tert-butylamino)-1,1-difluoro-2-oxoethyl)-4-(1,2-dihydroxyethyl)-N-(4-fluoro-3-methylphenyl)benzamide] | > 30 | > 30
7 | Cc1cc(NC(=O)c2ccc(F)c(C(F)(F)C(=O)N3CCC(C(=O)O)CC3)c2)ccc1F [Example 118, 1-(2,2-difluoro-2-(2-fluoro-5-((4-fluoro-3-methylphenyl)carbamoyl)phenyl)acetyl)piperidine-4-carboxylic acid] | < 5 | > 30
8 | CC(C)(C)NC(=O)C(O)c1cc(C(=O)Nc2ccc(F)c(F)c2)ccc1F (stereo not shown) [Example 119, 3-(2-(tert-butylamino)-1-hydroxy-2-oxoethyl)-N-(3,4-difluorophenyl)-4-fluorobenzamide] | 5 to 30 | 5 to 30
9 | O=C(Nc1ccc(F)c(F)c1)c1ccc(F)c(C(O)C(=O)N2CCC(O)CC2)c1 (stereo not shown) [Example 120, N-(3,4-difluorophenyl)-4-fluoro-3-(1-hydroxy-2-(4-hydroxypiperidin-1-yl)-2-oxoethyl)benzamide] | > 30 | > 30
10 | Cc1cc(NC(=O)c2cc(C(O)C(=O)NC(C)(C)C)cn2C)ccc1F (stereo not shown) [Example 121, 4-(2-(tert-butylamino)-1-hydroxy-2-oxoethyl)-N-(4-fluoro-3-methylphenyl)-1-methyl-1H-pyrrole-2-carboxamide] | < 5 | > 30
11 | Cc1cc(NC(=O)c2cc(C(F)(F)C(=O)N3CCC(B(O)O)CC3)n(C)c2)ccc1F [Example 122, (1-(2,2-difluoro-2-(4-((4-fluoro-3-methylphenyl)carbamoyl)-1-methyl-1H-pyrrol-2-yl)acetyl)piperidin-4-yl)boronic acid] | 5 to 30 | > 30
12 | Cc1cc(NC(=O)c2cc(C(C)(O)C(=O)NC(C)(C)C)cn2C)ccc1F (stereo not shown) [Example 123, 4-(1-(tert-butylamino)-2-hydroxy-1-oxopropan-2-yl)-N-(4-fluoro-3-methylphenyl)-1-methyl-1H-pyrrole-2-carboxamide] | 5 to 30 | 5 to 30
13 | Cc1cc(NC(=O)c2cc(C(O)(C(=O)NC(C)(C)C)C(C)C)cn2C)ccc1F (stereo not shown) [Example 124, 4-(1-(tert-butylamino)-2-hydroxy-3-methyl-1-oxobutan-2-yl)-N-(4-fluoro-3-methylphenyl)-1-methyl-1H-pyrrole-2-carboxamide] | 5 to 30 | > 30
14 | Cc1cc(NC(=O)c2cc(C(F)(F)C(=O)N[C@H]3CC[C@@H](O)CC3)n(C)c2)ccc1F [Example 125, 5-(1,1-difluoro-2-(((1s,4s)-4-hydroxycyclohexyl)amino)-2-oxoethyl)-N-(4-fluoro-3-methylphenyl)-1-methyl-1H-pyrrole-3-carboxamide] | < 5 | > 30
15 | Cc1cc(NC(=O)c2ccn(C)c2C(F)(F)C(=O)NC2CCC(O)CC2)ccc1F (stereo not shown) [Example 126, 2-(1,1-difluoro-2-(((1s,4s)-4-hydroxycyclohexyl)amino)-2-oxoethyl)-N-(4-fluoro-3-methylphenyl)-1-methyl-1H-pyrrole-3-carboxamide] | 5 to 30 | > 30
16 | Cc1cc(NC(=O)c2cc(C(F)(F)C(=O)N[C@@H]3CCCC[C@H]3O)n(C)c2)ccc1F [Example 127, 5-(1,1-difluoro-2-(((1R,2R)-2-hydroxycyclohexyl)amino)-2-oxoethyl)-N-(4-fluoro-3-methylphenyl)-1-methyl-1H-pyrrole-3-carboxamide] | < 5 | > 30
17 | Cc1cc(NC(=O)c2ccn(C)c2C(F)(F)C(=O)N[C@@H]2CCCC[C@H]2O)ccc1F [Example 128, 2-(1,1-difluoro-2-(((1R,2R)-2-hydroxycyclohexyl)amino)-2-oxoethyl)-N-(4-fluoro-3-methylphenyl)-1-methyl-1H-pyrrole-3-carboxamide] | 5 to 30 | > 30
18 | Cc1cc(NC(=O)c2cn(C)c(C(F)(F)C(=O)NC(C)(C)CO)c2C)ccc1F [Example 129, 5-(1,1-difluoro-2-((1-hydroxy-2-methylpropan-2-yl)amino)-2-oxoethyl)-N-(4-fluoro-3-methylphenyl)-1,4-dimethyl-1H-pyrrole-3-carboxamide] | < 5 | > 30
19 | Cc1cc(NC(=O)c2c(C)c(C(O)(C(=O)NC(C)(C)C)C(F)(F)F)c(C)n2C)ccc1F (stereo not shown) [Example 131, 4-(3-(tert-butylamino)-1,1,1-trifluoro-2-hydroxy-3-oxopropan-2-yl)-N-(4-fluoro-3-methylphenyl)-1,3,5-trimethyl-1H-pyrrole-2-carboxamide] | 5 to 30 | 5 to 30
20 | COCC(C)(C)NC(=O)C(F)(F)c1cc(C(=O)Nc2ccc(F)c(C)c2)cn1C [Example 132, 5-(1,1-difluoro-2-((1-methoxy-2-methylpropan-2-yl)amino)-2-oxoethyl)-N-(4-fluoro-3-methylphenyl)-1-methyl-1H-pyrrole-3-carboxamide] | < 5 | > 30
21 | Cc1cc(NC(=O)c2cc(C(F)(F)C(=O)NC3(C)CCCOC3)n(C)c2)ccc1F (stereo not shown) [Example 133, 5-(1,1-difluoro-2-((3-methyltetrahydro-2H-pyran-3-yl)amino)-2-oxoethyl)-N-(4-fluoro-3-methylphenyl)-1-methyl-1H-pyrrole-3-carboxamide] | < 5 | > 30
22 | CCn1cc(C(=O)Nc2ccc(F)c(C)c2)cc1C(F)(F)C(=O)NC(C)(C)C [Example 134, 5-(2-(tert-butylamino)-1,1-difluoro-2-oxoethyl)-1-ethyl-N-(4-fluoro-3-methylphenyl)-1H-pyrrole-3-carboxamide] | < 5 | > 30
23 | CCn1ccc(C(=O)Nc2ccc(F)c(C)c2)c1C(F)(F)C(=O)NC(C)(C)C [Example 135, 2-(2-(tert-butylamino)-1,1-difluoro-2-oxoethyl)-1-ethyl-N-(4-fluoro-3-methylphenyl)-1H-pyrrole-3-carboxamide] | 5 to 30 | > 30
24 | CCC(C)NC(=O)C(F)(F)c1cc(C(=O)Nc2ccc(F)c(Cl)c2)cn1C (stereo not shown) [Example 136, 5-(2-(sec-butylamino)-1,1-difluoro-2-oxoethyl)-N-(3-chloro-4-fluorophenyl)-1-methyl-1H-pyrrole-3-carboxamide] | 5 to 30 | > 30
25 | Cn1ccc(C(=O)Nc2ccc(F)c(Cl)c2)c1C(F)(F)C(=O)NC(C)(C)C [Example 137, 2-(2-(tert-butylamino)-1,1-difluoro-2-oxoethyl)-N-(3-chloro-4-fluorophenyl)-1-methyl-1H-pyrrole-3-carboxamide] | < 5 | > 30
26 | Cn1cc(C(=O)Nc2ccc(F)c(Cl)c2)cc1C(F)(F)C(=O)NCCO [Example 138, N-(3-chloro-4-fluorophenyl)-5-(1,1-difluoro-2-((2-hydroxyethyl)amino)-2-oxoethyl)-1-methyl-1H-pyrrole-3-carboxamide] | 5 to 30 | > 30
27 | C[C@H](NC(=O)C(F)(F)c1cc(C(=O)Nc2ccc(F)c(Cl)c2)cn1C)C(F)(F)F [Example 140, (S)-N-(3-chloro-4-fluorophenyl)-5-(1,1-difluoro-2-oxo-2-((1,1,1-trifluoropropan-2-yl)amino)ethyl)-1-methyl-1H-pyrrole-3-carboxamide] | < 5 | > 30
28 | C[C@H](NC(=O)C(F)(F)c1c(C(=O)Nc2ccc(F)c(Cl)c2)ccn1C)C(F)(F)F [Example 141] | 5 to 30 | > 30
29 | Cn1cc(C(=O)Nc2ccc(F)c(Cl)c2)cc1C(F)(F)C(=O)N[C@@H]1CCOC1 [Example 142, (R)-N-(3-chloro-4-fluorophenyl)-5-(1,1-difluoro-2-oxo-2-((tetrahydrofuran-3-yl)amino)ethyl)-1-methyl-1H-pyrrole-3-carboxamide] | < 5 | > 30
